Results as given in patent US20250101011A1, “PEPTIDYL NITRILE COMPOUND AND USE THEREOF” (SHANGHAI YIDIAN PHARMACEUTICAL TECHNOLOGY DEVELOPMENT CO., …, priority 2022, published 2025).

target: DPP1 (Homo sapiens (Human), UniProt P53634); experiment: DPP1 activity inhibition test on U937 cells; assay type: cell-based; settings: U-937, 5 nM compound, substrate h-Gly-phe-AFC
Method: After incubation at 37° C. for 1 h, add h-Gly-phe-AFC (10 μL) to each well and start reaction.

DPP1, sequence (P53634 25-463): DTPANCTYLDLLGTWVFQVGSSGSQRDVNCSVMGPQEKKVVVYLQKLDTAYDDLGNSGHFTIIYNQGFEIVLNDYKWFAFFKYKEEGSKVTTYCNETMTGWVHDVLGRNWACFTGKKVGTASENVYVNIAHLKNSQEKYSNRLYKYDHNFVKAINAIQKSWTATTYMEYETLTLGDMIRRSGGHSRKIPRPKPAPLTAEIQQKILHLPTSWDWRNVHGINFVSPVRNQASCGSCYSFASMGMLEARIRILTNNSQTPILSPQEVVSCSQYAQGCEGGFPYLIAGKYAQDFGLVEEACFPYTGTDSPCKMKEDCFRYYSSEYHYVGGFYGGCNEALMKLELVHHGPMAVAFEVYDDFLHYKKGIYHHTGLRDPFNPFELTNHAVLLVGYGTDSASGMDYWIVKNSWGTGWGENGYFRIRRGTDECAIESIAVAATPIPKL

SMILES	inhibition at 0.005 µM [%]
Cn1cnc(-n2c(=O)oc3ccc(-c4ccc(C[C@@H](C#N)NC(=O)[C@@H]5CNCCCO5)c(F)c4)cc32)c1 [Compound D62]	< 30
CO[C@@H](C)Cn1c(=O)oc2ccc(-c3ccc(C[C@@H](C#N)NC(=O)[C@@H]4CNCCCO4)cc3)cc21 [Compound D33]	< 30
Cn1c(=O)oc2ccc(-c3ccc(C[C@@H](C#N)NC(=O)[C@@H]4CNCc5ccccc5O4)cc3)cc21 [Compound D49]	< 30
N#C[C@H](Cc1ccc(-c2ccc3c(c2)C2(CCN(C4COC4)C2)OC3=O)cc1F)NC(=O)[C@@H]1CNCCCO1 (stereo partly drawn) [Compound D89]	< 30
CN1CCC2(CC1)OC(=O)c1ccc(-c3ccc(C[C@@H](C#N)NC(=O)[C@@H]4CNCCCO4)cc3)nc12 [Compound D29]	30 to 75
Cn1c(=O)oc2ccc(-c3ccc(C[C@@H](C#N)NC(=O)[C@@H]4CNC[C@H](F)CO4)cc3)cc21 [Compound D54]	30 to 75
CN1CCC2(CC1)OC(=O)c1ccc(-c3ccc(C[C@@H](C#N)NC(=O)[C@@H]4CNCCCO4)c(F)c3)cc12 [Compound D104]	< 30
C[C@H]1CNC[C@@H](C(=O)N[C@H](C#N)Cc2ccc(-c3ccc4oc(=O)n(C)c4c3)cc2F)OC1 [Compound D109]	30 to 75
Cn1c(=O)oc2ccc(-c3ccc(C[C@@H](C#N)NC(=O)[C@@H]4CNCC5(CC5)CO4)nc3)cc21 [Compound D47]	< 30
N#C[C@H](Cc1ccc(-c2cc3c(cn2)C(=O)CC3)cc1F)NC(=O)[C@@H]1CNCCCO1 [Compound D112]	< 30
N#C[C@H](Cc1ccc(-c2ccc3c(c2)C=CC32CCN(C3COC3)CC2)cc1F)NC(=O)[C@@H]1CNCCCO1 [Compound D93]	30 to 75
Cn1c(=O)oc2ccc(-c3ccc(C[C@@H](C#N)NC(=O)[C@@H]4CNCC5(CC5)CO4)nn3)cc21 [Compound D48]	30 to 75

Further lines, results first:

inhibition at 0.005 µM [%]	SMILES
< 30	CN1CCc2nc(-c3ccc(C[C@@H](C#N)NC(=O)[C@@H]4CNCCCO4)cc3)sc2C1 [Compound D18]
< 30	N#C[C@H](Cc1ccc(-c2ccc3c(c2)C(=O)OC3)cc1)NC(=O)[C@@H]1CNCCCO1 [Compound D45]
< 30	CN1CCC2(C1)OCc1ccc(-c3ccc(C[C@@H](C#N)NC(=O)[C@@H]4CNCCCO4)c(F)c3)cc12 (stereo partly drawn) [Compound D86]
< 30	CNS(=O)(=O)c1ccc(-c2ccc(C[C@@H](C#N)NC(=O)[C@@H]3CNCCCO3)cc2)cc1 [Compound D23]
< 30	CN1CCN(S(=O)(=O)c2ccc(-c3ccc(C[C@@H](C#N)NC(=O)[C@@H]4CNCCCO4)cc3)cc2)CC1 [Compound D16]
< 30	N#C[C@H](Cc1ccc(-c2ccc3c(c2)C(=O)CO3)cc1)NC(=O)[C@@H]1CNCCCO1 [Compound D10]
< 30	CN1Cc2cc(-c3ccc(C[C@@H](C#N)NC(=O)[C@@H]4CNCCCO4)cc3)sc2C1=O [Compound D12]

same assay, conditions: U-937, 50 nM compound, substrate h-Gly-phe-AFC

SMILES	inhibition at 0.05 µM [%]
CO/N=C1\CCc2cc(-c3ccc(C[C@@H](C#N)NC(=O)[C@@H]4CNCCCO4)c(F)c3)ccc21 [Compound D65]	30 to 75
Cn1cnc(-n2c(=O)oc3ccc(-c4ccc(C[C@@H](C#N)NC(=O)[C@@H]5CNCCCO5)c(F)c4)cc32)c1 [Compound D62]	30 to 75
CO[C@@H](C)Cn1c(=O)oc2ccc(-c3ccc(C[C@@H](C#N)NC(=O)[C@@H]4CNCCCO4)cc3)cc21 [Compound D33]	30 to 75
Cn1c(=O)oc2ccc(-c3ccc(C[C@@H](C#N)NC(=O)[C@@H]4CNCc5ccccc5O4)cc3)cc21 [Compound D49]	30 to 75
N#C[C@H](Cc1ccc(-c2ccc3c(c2)C2(CCN(C4COC4)C2)OC3=O)cc1F)NC(=O)[C@@H]1CNCCCO1 (stereo partly drawn) [Compound D89]	< 30
CN1CCC2(CC1)OC(=O)c1ccc(-c3ccc(C[C@@H](C#N)NC(=O)[C@@H]4CNCCCO4)cc3)nc12 [Compound D29]	75 to 100
Cn1c(=O)oc2ccc(-c3ccc(C[C@@H](C#N)NC(=O)[C@@H]4CNC[C@H](F)CO4)cc3)cc21 [Compound D54]	30 to 75
CN1CCC2(CC1)OC(=O)c1ccc(-c3ccc(C[C@@H](C#N)NC(=O)[C@@H]4CNCCCO4)c(F)c3)cc12 [Compound D104]	< 30
C[C@H]1CNC[C@@H](C(=O)N[C@H](C#N)Cc2ccc(-c3ccc4oc(=O)n(C)c4c3)cc2F)OC1 [Compound D109]	75 to 100
Cn1c(=O)oc2ccc(-c3ccc(C[C@@H](C#N)NC(=O)[C@@H]4CNCC5(CC5)CO4)nc3)cc21 [Compound D47]	75 to 100
N#C[C@H](Cc1ccc(-c2cc3c(cn2)C(=O)CC3)cc1F)NC(=O)[C@@H]1CNCCCO1 [Compound D112]	30 to 75
N#C[C@H](Cc1ccc(-c2ccc3c(c2)C=CC32CCN(C3COC3)CC2)cc1F)NC(=O)[C@@H]1CNCCCO1 [Compound D93]	75 to 100
Cn1c(=O)oc2ccc(-c3ccc(C[C@@H](C#N)NC(=O)[C@@H]4CNCC5(CC5)CO4)nn3)cc21 [Compound D48]	75 to 100

Now from value to compound:

inhibition at 0.05 µM [%]	SMILES
30 to 75	CN1CCc2nc(-c3ccc(C[C@@H](C#N)NC(=O)[C@@H]4CNCCCO4)cc3)sc2C1 [Compound D18]
30 to 75	N#C[C@H](Cc1ccc(-c2ccc3c(c2)C(=O)OC3)cc1)NC(=O)[C@@H]1CNCCCO1 [Compound D45]
75 to 100	CN1CCC2(C1)OCc1ccc(-c3ccc(C[C@@H](C#N)NC(=O)[C@@H]4CNCCCO4)c(F)c3)cc12 (stereo partly drawn) [Compound D86]
< 30	CNS(=O)(=O)c1ccc(-c2ccc(C[C@@H](C#N)NC(=O)[C@@H]3CNCCCO3)cc2)cc1 [Compound D23]
30 to 75	CN1CCN(S(=O)(=O)c2ccc(-c3ccc(C[C@@H](C#N)NC(=O)[C@@H]4CNCCCO4)cc3)cc2)CC1 [Compound D16]
30 to 75	N#C[C@H](Cc1ccc(-c2ccc3c(c2)C(=O)CO3)cc1)NC(=O)[C@@H]1CNCCCO1 [Compound D10]
< 30	CN1Cc2cc(-c3ccc(C[C@@H](C#N)NC(=O)[C@@H]4CNCCCO4)cc3)sc2C1=O [Compound D12]

same assay, conditions: intracellular enzyme activity, substrate h-Gly-phe-AFC

IC50 [nM]	SMILES
6.4	Cn1c(=O)oc2ccc(-c3ccc(C[C@@H](C#N)NC(=O)[C@@H]4CNC[C@@H](F)CO4)c(F)c3)cc21 [Compound D55]
867	Cn1ccc(=O)c2ccc(-c3ccc(C[C@@H](C#N)NC(=O)[C@@H]4CNCCCO4)c(F)c3)cc21 [Compound D114]
4.7	N#C[C@H](Cc1ccc(-c2ccc3c(c2)CCC3=O)[se]1)NC(=O)[C@@H]1CNCCCO1 [Compound D121]
5.3	C[C@H]1CNC[C@@H](C(=O)N[C@H](C#N)Cc2ccc(-c3ccc4oc(=O)n(C)c4c3)cc2F)OC1 [Compound D109]
12	Cn1c(=O)oc2ccc(-c3ccc(C[C@@H](C#N)NC(=O)[C@@H]4CNCC5(CC5)CO4)nn3)cc21 [Compound D48]

SMILES	IC50 [nM]
N#C[C@H](Cc1ccc(-c2ccc3c(c2)C=CC32CCN(C3COC3)CC2)cc1F)NC(=O)[C@@H]1CNCCCO1 [Compound D93]	15.8
